Data reported in the NIST ThermoML archive (doi:10.1016/j.jct.2015.12.017).
Numbers after ± are expanded uncertainties.

Legend:
[1] = for molar entropy: 101.33 kPa
[2] = Molar enthalpy of transition or fusion

O=P([O-])([O-])[O-].[Co+2].[Cs+] [cesium cobalt(II) phosphate]
[1]
Settings	molar entropy [J/K/mol]
5 K, Crystal 4, Vacuum adiabatic calorimetry	0.4864 ± 0.023
6 K, Crystal 4, Vacuum adiabatic calorimetry	0.7965 ± 0.033
7 K, Crystal 4, Vacuum adiabatic calorimetry	1.172 ± 0.05
8 K, Crystal 4, Vacuum adiabatic calorimetry	1.621 ± 0.058
9 K, Crystal 4, Vacuum adiabatic calorimetry	2.062 ± 0.075
10 K, Crystal 4, Vacuum adiabatic calorimetry	2.528 ± 0.091
15 K, Crystal 4, Vacuum adiabatic calorimetry	5.047 ± 0.18
20 K, Crystal 4, Vacuum adiabatic calorimetry	8.117 ± 0.11
25 K, Crystal 4, Vacuum adiabatic calorimetry	11.62 ± 0.16
30 K, Crystal 4, Vacuum adiabatic calorimetry	15.46 ± 0.2
35 K, Crystal 4, Vacuum adiabatic calorimetry	19.44 ± 0.25
40 K, Crystal 4, Vacuum adiabatic calorimetry	23.53 ± 0.3
45 K, Crystal 4, Vacuum adiabatic calorimetry	27.67 ± 0.27
50 K, Crystal 4, Vacuum adiabatic calorimetry	31.83 ± 0.31
60 K, Crystal 4, Vacuum adiabatic calorimetry	40.01 ± 0.38
70 K, Crystal 4, Vacuum adiabatic calorimetry	47.95 ± 0.46
80 K, Crystal 4, Vacuum adiabatic calorimetry	55.65 ± 0.52
90 K, Crystal 4, Vacuum adiabatic calorimetry	63.08 ± 0.63
100 K, Crystal 4, Vacuum adiabatic calorimetry	70.28 ± 0.7
110 K, Crystal 4, Vacuum adiabatic calorimetry	77.27 ± 0.76
120 K, Crystal 4, Vacuum adiabatic calorimetry	84.06 ± 0.83
130 K, Crystal 4, Vacuum adiabatic calorimetry	90.54 ± 0.83
140 K, Crystal 4, Vacuum adiabatic calorimetry	96.95 ± 0.91
150 K, Crystal 4, Vacuum adiabatic calorimetry	103.18 ± 1
160 K, Crystal 4, Vacuum adiabatic calorimetry	109.17 ± 1
170 K, Crystal 4, Vacuum adiabatic calorimetry	115.16 ± 1.1
180 K, Crystal 4, Vacuum adiabatic calorimetry	120.89 ± 1.2
190 K, Crystal 4, Vacuum adiabatic calorimetry	126.55 ± 1.2
200 K, Crystal 4, Vacuum adiabatic calorimetry	132.03 ± 1.2
210 K, Crystal 4, Vacuum adiabatic calorimetry	137.36 ± 1.2
220 K, Crystal 4, Vacuum adiabatic calorimetry	142.59 ± 1.3
230 K, Crystal 4, Vacuum adiabatic calorimetry	147.75 ± 1.4
240 K, Crystal 4, Vacuum adiabatic calorimetry	152.74 ± 1.4
250 K, Crystal 4, Vacuum adiabatic calorimetry	157.64 ± 1.5
260 K, Crystal 4, Vacuum adiabatic calorimetry	162.55 ± 1.5
270 K, Crystal 4, Vacuum adiabatic calorimetry	167.29 ± 1.6
273.15 K, Crystal 4, Vacuum adiabatic calorimetry	168.78 ± 1.6
280 K, Crystal 4, Vacuum adiabatic calorimetry	171.94 ± 1.6
290 K, Crystal 4, Vacuum adiabatic calorimetry	176.52 ± 1.7
298.15 K, Crystal 4, Vacuum adiabatic calorimetry	180.17 ± 1.7
300 K, Crystal 4, Vacuum adiabatic calorimetry	181.01 ± 1.7
310 K, Crystal 4, Vacuum adiabatic calorimetry	185.5 ± 1.7
313.4 K, Crystal 3, Vacuum adiabatic calorimetry	186.91 ± 1.7
313.4 K, Crystal 4, Vacuum adiabatic calorimetry	186.83 ± 1.7
320 K, Crystal 3, Vacuum adiabatic calorimetry	190.07 ± 1.7
330 K, Crystal 3, Vacuum adiabatic calorimetry	194.48 ± 1.8
340 K, Crystal 3, Vacuum adiabatic calorimetry	198.8 ± 1.8
350 K, Crystal 3, Small sample (50 mg) DSC	203.12 ± 10
360 K, Crystal 3, Small sample (50 mg) DSC	207.45 ± 10
370 K, Crystal 3, Small sample (50 mg) DSC	211.69 ± 11
380 K, Crystal 3, Small sample (50 mg) DSC	215.76 ± 11
390 K, Crystal 3, Small sample (50 mg) DSC	219.92 ± 11
400 K, Crystal 3, Small sample (50 mg) DSC	223.91 ± 11
410 K, Crystal 3, Small sample (50 mg) DSC	227.9 ± 11
420 K, Crystal 3, Small sample (50 mg) DSC	231.81 ± 12
430 K, Crystal 3, Small sample (50 mg) DSC	235.63 ± 12
440 K, Crystal 3, Small sample (50 mg) DSC	239.46 ± 12
450 K, Crystal 3, Small sample (50 mg) DSC	243.2 ± 12
460 K, Crystal 3, Small sample (50 mg) DSC	246.94 ± 12
470 K, Crystal 3, Small sample (50 mg) DSC	250.6 ± 12
480 K, Crystal 3, Small sample (50 mg) DSC	254.26 ± 13
486.9 K, Crystal 2, Small sample (50 mg) DSC	257.5 ± 13
486.9 K, Crystal 3, Small sample (50 mg) DSC	256.83 ± 13
490 K, Crystal 2, Small sample (50 mg) DSC	258.58 ± 13
500 K, Crystal 2, Small sample (50 mg) DSC	262.16 ± 13
510 K, Crystal 2, Small sample (50 mg) DSC	265.65 ± 13
514.4 K, Crystal 1, Small sample (50 mg) DSC	267.98 ± 13
514.4 K, Crystal 2, Small sample (50 mg) DSC	267.06 ± 13
520 K, Crystal 1, Small sample (50 mg) DSC	270.05 ± 13
530 K, Crystal 1, Small sample (50 mg) DSC	273.38 ± 14
540 K, Crystal 1, Small sample (50 mg) DSC	276.71 ± 14
550 K, Crystal 1, Small sample (50 mg) DSC	279.95 ± 14
560 K, Crystal 1, Small sample (50 mg) DSC	283.19 ± 14
570 K, Crystal 1, Small sample (50 mg) DSC	286.27 ± 14
580 K, Crystal 1, Small sample (50 mg) DSC	289.34 ± 14
590 K, Crystal 1, Small sample (50 mg) DSC	292.42 ± 15
600 K, Crystal 1, Small sample (50 mg) DSC	295.41 ± 15
610 K, Crystal 1, Small sample (50 mg) DSC	298.32 ± 15
620 K, Crystal 1, Small sample (50 mg) DSC	301.15 ± 15
630 K, Crystal 1, Small sample (50 mg) DSC	303.98 ± 15
640 K, Crystal 1, Small sample (50 mg) DSC	306.8 ± 15
650 K, Crystal 1, Small sample (50 mg) DSC	309.55 ± 15

Settings	Molar enthalpy of transition or fusion, Crystal 2, DSC [kcal/mol]	Molar enthalpy of transition or fusion, Crystal 3, DSC [kcal/mol]	Molar enthalpy of transition or fusion, Crystal 4, Adiabatic calorimetry [kcal/mol]	Triple point temperature, Crystal 2, DSC [K]	Triple point temperature, Crystal 3, DSC [K]	Triple point temperature, Crystal 4, Adiabatic calorimetry [K]
[1]	–	–	–	514.4 ± 0.8	486.9 ± 0.8	313.4 ± 0.04
[2]	0.113 ± 0.00227	0.0824 ± 0.00165	0.00728 ± 0.000136	–	–	–
